The values below come from paper PMC9472360, “Adagrasib, a KRAS G12C inhibitor, reverses the multidrug resistance mediated by ABCB1 in vitro and in vivo” (Cell Communication and Signaling : CCS, 2022).

For this data set, the target named is T1, ABCB1 (P-glycoprotein/P-gp/MDR1) (Homo sapiens, UniProt P08183).
T1 construct: full-length ABCB1 overexpressed in High Five insect cells; crude membranes
Briefly: vanadate-sensitive ATPase assay, inorganic phosphate release, ABCB1 membranes. It is filed as biochemical. The following applies: High Five membranes 100 µg/mL, 12 mM Mg-ATP, 37 °C, 0.01-5 µM.

T1 sequence (P08183 whole entry): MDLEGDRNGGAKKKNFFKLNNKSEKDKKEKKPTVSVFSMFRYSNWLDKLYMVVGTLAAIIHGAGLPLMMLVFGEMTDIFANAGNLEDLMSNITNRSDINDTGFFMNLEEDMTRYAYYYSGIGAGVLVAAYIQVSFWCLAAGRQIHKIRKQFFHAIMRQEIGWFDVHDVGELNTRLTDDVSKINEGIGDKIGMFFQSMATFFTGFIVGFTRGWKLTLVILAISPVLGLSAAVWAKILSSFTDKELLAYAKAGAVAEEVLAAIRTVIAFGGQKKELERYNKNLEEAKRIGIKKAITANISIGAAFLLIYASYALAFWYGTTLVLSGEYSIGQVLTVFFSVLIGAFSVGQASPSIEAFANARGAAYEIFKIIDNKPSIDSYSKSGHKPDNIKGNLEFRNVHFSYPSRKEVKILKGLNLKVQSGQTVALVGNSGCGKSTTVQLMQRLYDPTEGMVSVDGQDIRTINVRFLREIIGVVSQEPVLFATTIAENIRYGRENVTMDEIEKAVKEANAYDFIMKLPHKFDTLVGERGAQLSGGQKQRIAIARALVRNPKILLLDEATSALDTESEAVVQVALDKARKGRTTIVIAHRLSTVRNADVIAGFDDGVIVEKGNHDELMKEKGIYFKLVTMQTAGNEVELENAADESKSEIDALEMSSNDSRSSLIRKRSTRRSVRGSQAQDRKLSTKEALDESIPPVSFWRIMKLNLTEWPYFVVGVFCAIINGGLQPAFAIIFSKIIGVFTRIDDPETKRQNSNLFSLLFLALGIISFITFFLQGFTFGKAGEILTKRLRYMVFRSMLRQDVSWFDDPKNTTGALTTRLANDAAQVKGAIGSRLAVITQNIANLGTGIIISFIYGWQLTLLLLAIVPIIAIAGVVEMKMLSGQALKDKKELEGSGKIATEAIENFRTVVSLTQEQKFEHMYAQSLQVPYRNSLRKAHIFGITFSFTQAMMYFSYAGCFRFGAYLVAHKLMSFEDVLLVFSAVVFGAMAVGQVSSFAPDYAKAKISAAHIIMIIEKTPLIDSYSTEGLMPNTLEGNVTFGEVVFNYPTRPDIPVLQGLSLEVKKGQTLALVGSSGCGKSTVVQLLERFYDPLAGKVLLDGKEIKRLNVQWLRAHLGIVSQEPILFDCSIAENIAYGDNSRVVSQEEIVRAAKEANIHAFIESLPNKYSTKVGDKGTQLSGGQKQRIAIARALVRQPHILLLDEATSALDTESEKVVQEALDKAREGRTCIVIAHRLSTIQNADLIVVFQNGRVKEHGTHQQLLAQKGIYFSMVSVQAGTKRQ

For the compound `C=C(F)C(=O)N1CCN(c2nc(OC[C@@H]3CCCN3C)nc3c2CCN(c2cccc4cccc(Cl)c24)C3)C[C@@H]1CC#N` [MRTX849], the ATPase stimulation result was “MRTX849- stimulated activity of ABCB1 ATPase was dose-dependent”.
